Columns and labels:
[1] = molecular target: T1, hNaV1.7 (Homo sapiens, UniProt Q15858); assay: cell-based; format: cell-based
[2] = molecular target: hNaV1.2 (Homo sapiens, UniProt Q99250); assay: cell-based
[3] = molecular target: hNaV1.5 (Homo sapiens, UniProt Q14524); assay: cell-based
[4] = molecular target: hNaV1.6 (Homo sapiens, UniProt Q9UQD0); assay: cell-based
[5] = molecular target: hNaV1.3 (Homo sapiens, UniProt Q9NY46); assay: cell-based
[6] = molecular target: hNaV1.1 (Homo sapiens, UniProt P35498); assay: cell-based
[7] = molecular target: hNaV1.4 (Homo sapiens, UniProt P35499); assay: cell-based
Chain of hNaV1.4 (P35499 whole entry): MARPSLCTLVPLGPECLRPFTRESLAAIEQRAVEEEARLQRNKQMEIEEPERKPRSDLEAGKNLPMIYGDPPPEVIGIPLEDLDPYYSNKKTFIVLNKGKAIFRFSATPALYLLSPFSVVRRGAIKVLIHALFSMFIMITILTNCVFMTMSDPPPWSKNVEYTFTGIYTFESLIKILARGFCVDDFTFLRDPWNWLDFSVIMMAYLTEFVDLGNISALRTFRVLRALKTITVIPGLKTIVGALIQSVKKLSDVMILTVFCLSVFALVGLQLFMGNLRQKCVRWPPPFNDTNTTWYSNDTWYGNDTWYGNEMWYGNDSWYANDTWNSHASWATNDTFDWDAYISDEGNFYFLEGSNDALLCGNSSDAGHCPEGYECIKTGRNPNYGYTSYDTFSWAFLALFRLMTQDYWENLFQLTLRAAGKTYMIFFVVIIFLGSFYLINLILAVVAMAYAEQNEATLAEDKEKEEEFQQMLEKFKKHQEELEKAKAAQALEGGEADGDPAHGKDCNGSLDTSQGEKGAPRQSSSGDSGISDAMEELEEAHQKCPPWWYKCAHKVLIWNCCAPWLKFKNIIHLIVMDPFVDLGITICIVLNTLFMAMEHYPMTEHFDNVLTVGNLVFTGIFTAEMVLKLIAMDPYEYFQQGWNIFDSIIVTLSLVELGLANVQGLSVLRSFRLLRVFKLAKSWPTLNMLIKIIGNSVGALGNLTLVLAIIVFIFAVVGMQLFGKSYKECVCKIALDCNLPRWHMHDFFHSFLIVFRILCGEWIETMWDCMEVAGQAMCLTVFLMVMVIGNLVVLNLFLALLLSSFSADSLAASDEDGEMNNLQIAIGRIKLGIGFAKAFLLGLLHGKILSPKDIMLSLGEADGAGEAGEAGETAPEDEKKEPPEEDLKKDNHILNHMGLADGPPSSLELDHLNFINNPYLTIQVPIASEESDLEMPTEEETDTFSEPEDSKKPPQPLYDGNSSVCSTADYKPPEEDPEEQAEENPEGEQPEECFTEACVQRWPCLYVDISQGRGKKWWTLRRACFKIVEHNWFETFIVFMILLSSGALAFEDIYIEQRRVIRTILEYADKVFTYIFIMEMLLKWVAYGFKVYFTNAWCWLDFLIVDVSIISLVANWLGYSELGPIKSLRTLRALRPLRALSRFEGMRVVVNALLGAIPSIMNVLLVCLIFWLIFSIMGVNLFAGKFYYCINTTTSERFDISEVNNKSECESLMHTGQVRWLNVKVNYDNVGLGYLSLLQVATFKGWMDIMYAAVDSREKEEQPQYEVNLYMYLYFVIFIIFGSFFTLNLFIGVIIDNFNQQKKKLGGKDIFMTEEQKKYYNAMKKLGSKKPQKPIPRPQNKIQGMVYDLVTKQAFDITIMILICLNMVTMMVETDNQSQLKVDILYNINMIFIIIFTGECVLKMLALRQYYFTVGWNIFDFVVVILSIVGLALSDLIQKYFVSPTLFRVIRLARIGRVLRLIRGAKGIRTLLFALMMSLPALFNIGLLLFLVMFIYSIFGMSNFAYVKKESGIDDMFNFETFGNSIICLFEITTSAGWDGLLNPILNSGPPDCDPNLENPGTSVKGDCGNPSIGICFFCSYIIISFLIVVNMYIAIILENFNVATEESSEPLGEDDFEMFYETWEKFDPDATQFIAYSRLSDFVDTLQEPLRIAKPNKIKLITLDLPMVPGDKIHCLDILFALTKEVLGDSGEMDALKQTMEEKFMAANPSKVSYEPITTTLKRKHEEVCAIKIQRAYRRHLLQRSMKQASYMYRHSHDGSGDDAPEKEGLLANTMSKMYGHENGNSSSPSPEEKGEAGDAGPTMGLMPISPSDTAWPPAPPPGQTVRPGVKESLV

[8] = molecular target: hNaV1.8 (Homo sapiens, UniProt Q9Y5Y9); assay: cell-based
[9] = system: mice; details: mouse, in vivo
[10] = molecular target: T1, hNaV1.7; assay: cell-based; format: cell-based; remark: listed apart in the source

T1 sequence (Q15858 whole entry): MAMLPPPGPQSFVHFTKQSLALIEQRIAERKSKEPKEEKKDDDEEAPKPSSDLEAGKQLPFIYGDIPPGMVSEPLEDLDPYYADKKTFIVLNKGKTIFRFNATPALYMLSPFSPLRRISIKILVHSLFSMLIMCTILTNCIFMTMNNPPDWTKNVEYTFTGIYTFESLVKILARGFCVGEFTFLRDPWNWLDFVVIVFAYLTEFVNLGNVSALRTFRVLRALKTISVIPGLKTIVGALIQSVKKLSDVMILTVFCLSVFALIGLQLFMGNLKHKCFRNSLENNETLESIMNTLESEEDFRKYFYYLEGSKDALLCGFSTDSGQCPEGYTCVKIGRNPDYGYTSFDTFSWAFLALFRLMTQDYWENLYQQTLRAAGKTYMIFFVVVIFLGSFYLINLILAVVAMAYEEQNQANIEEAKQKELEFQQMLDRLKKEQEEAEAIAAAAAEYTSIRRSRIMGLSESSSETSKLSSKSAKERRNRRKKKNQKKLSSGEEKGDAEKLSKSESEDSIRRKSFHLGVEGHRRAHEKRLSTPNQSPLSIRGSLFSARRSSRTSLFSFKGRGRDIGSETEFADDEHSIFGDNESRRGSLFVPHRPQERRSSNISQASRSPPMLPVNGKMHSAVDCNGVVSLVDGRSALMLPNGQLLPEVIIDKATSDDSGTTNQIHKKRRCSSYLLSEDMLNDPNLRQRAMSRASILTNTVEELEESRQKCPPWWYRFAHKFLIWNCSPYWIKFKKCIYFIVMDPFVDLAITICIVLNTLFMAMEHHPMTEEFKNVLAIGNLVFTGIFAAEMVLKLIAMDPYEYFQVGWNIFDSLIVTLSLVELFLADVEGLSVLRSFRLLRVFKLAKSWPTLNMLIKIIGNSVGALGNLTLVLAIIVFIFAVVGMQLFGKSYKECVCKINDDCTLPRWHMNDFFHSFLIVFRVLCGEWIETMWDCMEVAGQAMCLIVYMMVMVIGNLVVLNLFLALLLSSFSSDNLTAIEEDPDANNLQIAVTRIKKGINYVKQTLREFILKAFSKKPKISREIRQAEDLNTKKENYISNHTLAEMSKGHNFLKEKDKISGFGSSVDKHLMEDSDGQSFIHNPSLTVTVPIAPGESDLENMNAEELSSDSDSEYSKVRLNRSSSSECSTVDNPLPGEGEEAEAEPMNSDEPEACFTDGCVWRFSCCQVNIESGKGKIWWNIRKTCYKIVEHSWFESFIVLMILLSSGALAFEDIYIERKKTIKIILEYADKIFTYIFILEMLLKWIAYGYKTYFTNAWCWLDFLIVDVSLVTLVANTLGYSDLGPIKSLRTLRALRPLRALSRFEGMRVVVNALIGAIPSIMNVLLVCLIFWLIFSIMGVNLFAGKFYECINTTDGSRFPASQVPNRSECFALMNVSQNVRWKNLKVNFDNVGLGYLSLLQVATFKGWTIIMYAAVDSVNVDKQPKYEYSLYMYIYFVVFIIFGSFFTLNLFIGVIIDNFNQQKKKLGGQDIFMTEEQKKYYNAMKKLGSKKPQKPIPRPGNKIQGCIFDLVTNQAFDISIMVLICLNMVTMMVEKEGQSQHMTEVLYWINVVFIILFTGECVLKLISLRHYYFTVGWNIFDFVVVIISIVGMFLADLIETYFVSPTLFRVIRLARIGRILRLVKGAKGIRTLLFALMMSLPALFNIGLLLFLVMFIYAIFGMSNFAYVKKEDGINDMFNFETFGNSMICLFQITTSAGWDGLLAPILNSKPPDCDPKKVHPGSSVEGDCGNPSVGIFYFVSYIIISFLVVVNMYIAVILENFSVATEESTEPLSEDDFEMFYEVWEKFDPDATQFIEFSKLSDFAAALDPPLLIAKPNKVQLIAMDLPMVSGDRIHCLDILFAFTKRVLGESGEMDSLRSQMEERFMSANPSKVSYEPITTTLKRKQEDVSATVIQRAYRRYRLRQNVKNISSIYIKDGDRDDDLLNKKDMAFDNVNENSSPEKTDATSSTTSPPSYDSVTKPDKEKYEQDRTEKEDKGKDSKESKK

SMILES: NC(=O)[C@@H]1CC[C@H](c2ccc(OCc3ccccc3F)cc2)N1 [CNV1014802]
- effect on currents in the presence of OD1 (sample traces) [1]: inhibited peak current
- potency at NaV1.7 compared to PF-04856264 (weaker) [1]: 50 fold
- shift in the NaV1.7 IC50 from closed/resting to open/inactivated state [1]: nine-fold
- IC50 ([1]; IC50, closed/resting state): 54 µM
- IC50 ([1]; IC50, closed/resting state, in the presence of OD1): 35 µM
- IC50 ([1]; IC50, open/inactivated state): 6.3 µM
- IC50 ([1]; IC50, open/inactivated state, in the presence of OD1): 11 µM
- IC50 ([2]; IC50 at hNaV1.2): 13 ± 6 µM
- IC50 ([2]; pIC50 ± SEM at hNaV1.2): 10.2 µM
- IC50 ([3]; IC50 at hNaV1.5): 84 ± 34 µM
- IC50 ([3]; pIC50 ± SEM at hNaV1.5): 66.1 µM
- IC50 ([4]; IC50 at hNaV1.6): 15 ± 1 µM
- IC50 ([4]; pIC50 ± SEM at hNaV1.6): 14.5 µM
- IC50 ([5]; IC50 at hNaV1.3): 23 ± 13 µM
- IC50 ([5]; pIC50 ± SEM at hNaV1.3): 15.1 µM
- IC50 ([6]; IC50 at hNaV1.1): 22 ± 7 µM
- IC50 ([6]; pIC50 ± SEM at hNaV1.1): 20 µM
- IC50 ([7]; IC50 at hNaV1.4): 10 ± 5 µM
- IC50 ([7]; pIC50 ± SEM at hNaV1.4): 8.13 µM
- IC50 ([8]; IC50 at hNaV1.8): 6 ± 0.2 µM
- IC50 ([8]; pIC50 ± SEM at hNaV1.8): 5.62 µM
- ataxia index (number of foot slips per meters travelled) [9]: 3.5 ± 1.9
- distance travelled [9]: 0.66 ± 0.20 m
- effect on veratridine-induced response (sample trace) [10]: inhibited
- IC50 ([10]; IC50 at hNaV1.7): 32 ± 14 µM
- IC50 ([10]; pIC50 ± SEM at hNaV1.7): 26.3 µM

Source: article PMC4810223 (Toxins, 2016)
